Values after ≈ are worked out from the molar mass of the structure shown.
System: murine splenocytes
Test: two-way mixed lymphocyte reaction (MLR)
Type: cell-based
Conditions: Mus musculus, Splenocyte; 0.01 ug/well; percentage of positive MLR control (no compound)
Method: The crude ethanolic extract was tested in the two-way mixed lymphocyte reaction (MLR) and a CV-1 cytotoxicity assay at a 1X concentration of the crude extract, using murine splenocytes. Cellular proliferation was measured using incorporation of ^3 H-thymidine.
The pure compounds were tested for immunosuppressive effects in the MLR assay and for specific cytotoxicity effects in the lymphocyte viability (LCV) assay both using murine splenocytes. […] Responses were reported as a percent of the positive MLR or LCV control. As a general rule, a low MLR value combined with a high LCV value indicates immunosuppressive activity.
^a Twoway murine mixed lymphocyte response. Results are expressed as
percentage of the positive MLR control response (no compound).
For C#CC(O)C=CCCCCCCCCCC=CCCCCC(C)C (stereo not drawn) [SP10102], the activity at 0.01 µg/well was 20%.
With C#CC(O)C=CCCCCCCCCCC=CCCCCCC (stereo not drawn) [SP10099] the activity at 0.01 µg/well was 33%.
C#CC(O)C=CCCCCCCCCCCCCCCC (stereo not drawn) [SP10098] gave an activity at 0.01 µg/well of 24%.
For C#CC(O)C=CCCCCCCCCCCC(C)CCCC (stereo not drawn) [SP10100], the activity at 0.01 µg/well was 21%.
For C#CC(O)C=CCCCCCCCCCCCCCC(C)C (stereo not drawn) [SP10101], the activity at 0.01 µg/well was 21%.

Same assay, conditions: Mus musculus, Splenocyte; 0.1 ug/well; percentage of positive MLR control (no compound)
For C#CC(O)C=CCCCCCCCCCC=CCCCCC(C)C (stereo not drawn) [SP10102], the activity at 0.1 µg/well was 0%.
C#CC(O)C=CCCCCCCCCCC=CCCCCCC (stereo not drawn) [SP10099] showed an activity at 0.1 µg/well of 0%.
C#CC(O)C=CCCCCCCCCCCCCCCC (stereo not drawn) [SP10098] gave an activity at 0.1 µg/well of 0%.
Molecule C#CC(O)C=CCCCCCCCCCCC(C)CCCC (stereo not drawn) [SP10100] has an activity at 0.1 µg/well of 0%.
Molecule C#CC(O)C=CCCCCCCCCCCCCCC(C)C (stereo not drawn) [SP10101] has an activity at 0.1 µg/well of 0%.

Same assay, conditions: Mus musculus, Splenocyte; 1 ug/well; percentage of positive MLR control (no compound)
For C#CC(O)C=CCCCCCCCCCC=CCCCCC(C)C (stereo not drawn) [SP10102], the activity at 1 µg/well was 0%.
C#CC(O)C=CCCCCCCCCCC=CCCCCCC (stereo not drawn) [SP10099] showed an activity at 1 µg/well of 0%.
Molecule C#CC(O)C=CCCCCCCCCCCCCCCC (stereo not drawn) [SP10098] has an activity at 1 µg/well of 0%.
Molecule C#CC(O)C=CCCCCCCCCCCC(C)CCCC (stereo not drawn) [SP10100] has an activity at 1 µg/well of 0%.
Work on C#CC(O)C=CCCCCCCCCCCCCCC(C)C (stereo not drawn) [SP10101] yielded an activity at 1 µg/well of 0%.

Same assay, conditions: Mus musculus, Splenocyte; 10 ug/well; percentage of positive MLR control (no compound)
In the case of C#CC(O)C=CCCCCCCCCCC=CCCCCC(C)C (stereo not drawn) [SP10102], the activity at 10 µg/well is reported as 0%.
C#CC(O)C=CCCCCCCCCCC=CCCCCCC (stereo not drawn) [SP10099] showed an activity at 10 µg/well of 0%.
C#CC(O)C=CCCCCCCCCCCCCCCC (stereo not drawn) [SP10098] gave an activity at 10 µg/well of 0%.
C#CC(O)C=CCCCCCCCCCCC(C)CCCC (stereo not drawn) [SP10100] gave an activity at 10 µg/well of 0%.

System: not listed separately
Test: lymphocyte viability (LCV) assay
Type: cell-based, murine
Conditions: mouse, splenocytes, 0.01 ug/well; percentage of positive LCV control (no compound)
Method: The pure compounds were tested for immunosuppressive effects in the MLR assay and for specific cytotoxicity effects in the lymphocyte viability (LCV) assay both using murine splenocytes. Cellular proliferation was determined using incorporation of ^3 H-thymidine and a modified form of the M. T. T. assay (Mosmann, T. [1983] "Rapid colorimetric assay for cellular growth and survival: Application to proliferation and cytotoxicity assays," J. Immunol. Methods, 65:55-63). Responses were reported as a percent of the positive MLR or LCV control. As a general rule, a low MLR value combined with a high LCV value indicates immunosuppressive activity.
^b Viability (LCV) of lymphocytes as measured by metabolism of M.T.T.
Results are expressed as a percentage of the positive LCV control respons
C#CC(O)C=CCCCCCCCCCC=CCCCCC(C)C (stereo not drawn) [SP10102] showed a viability of 67%.
Molecule C#CC(O)C=CCCCCCCCCCC=CCCCCCC (stereo not drawn) [SP10099] has a viability of 67%.
C#CC(O)C=CCCCCCCCCCCCCCCC (stereo not drawn) [SP10098] gave a viability of 80%.
C#CC(O)C=CCCCCCCCCCCC(C)CCCC (stereo not drawn) [SP10100] showed a viability of 78%.
C#CC(O)C=CCCCCCCCCCCCCCC(C)C (stereo not drawn) [SP10101] gave a viability of 82%.

Same assay, conditions: mouse, splenocytes, 0.1 ug/well; percentage of positive LCV control (no compound)
C#CC(O)C=CCCCCCCCCCC=CCCCCC(C)C (stereo not drawn) [SP10102] showed a viability of 45%.
In the case of C#CC(O)C=CCCCCCCCCCC=CCCCCCC (stereo not drawn) [SP10099], the viability is reported as 34%.
C#CC(O)C=CCCCCCCCCCCCCCCC (stereo not drawn) [SP10098] showed a viability of 61%.
With C#CC(O)C=CCCCCCCCCCCC(C)CCCC (stereo not drawn) [SP10100] the viability was 42%.
Molecule C#CC(O)C=CCCCCCCCCCCCCCC(C)C (stereo not drawn) [SP10101] has a viability of 49%.

Same assay, conditions: mouse, splenocytes, 1 ug/well; percentage of positive LCV control (no compound)
Molecule C#CC(O)C=CCCCCCCCCCC=CCCCCC(C)C (stereo not drawn) [SP10102] has a viability of 15%.
Work on C#CC(O)C=CCCCCCCCCCC=CCCCCCC (stereo not drawn) [SP10099] yielded a viability of 13%.
With C#CC(O)C=CCCCCCCCCCCCCCCC (stereo not drawn) [SP10098] the viability was 21%.
For C#CC(O)C=CCCCCCCCCCCC(C)CCCC (stereo not drawn) [SP10100], the viability was 12%.
Work on C#CC(O)C=CCCCCCCCCCCCCCC(C)C (stereo not drawn) [SP10101] yielded a viability of 7%.

Same assay, conditions: mouse, splenocytes, 10 ug/well; percentage of positive LCV control (no compound)
For C#CC(O)C=CCCCCCCCCCC=CCCCCC(C)C (stereo not drawn) [SP10102], the viability was 0%.
C#CC(O)C=CCCCCCCCCCC=CCCCCCC (stereo not drawn) [SP10099] gave a viability of 22%.
With C#CC(O)C=CCCCCCCCCCCCCCCC (stereo not drawn) [SP10098] the viability was 2%.
Work on C#CC(O)C=CCCCCCCCCCCC(C)CCCC (stereo not drawn) [SP10100] yielded a viability of 8%.
Molecule C#CC(O)C=CCCCCCCCCCCCCCC(C)C (stereo not drawn) [SP10101] has a viability of 10%.

System: P388 leukemia cells
Test: antiproliferative effect against P388 leukemia cells (MTT)
Type: cell-based
Conditions: Mus musculus; murine P388 leukemia cells, 48-h exposure; mean ± S.D., n in parentheses
Method: (§1) The crude ethanolic extract and essentially pure compound were tested for toxicity against murine P388 leukemia cells and cells derived from human colon (HT-29) and lung (A549) tumors. P388 cells obtained from Dr. J. Mayo, National Cancer Institute, Bethesda Md., were maintained in Roswell Park Memorial Institute (RPMI) medium 1640 supplemented with 10% horse serum. HT-29 and A-459 human tumor cells were obtained from the American Type Culture Collection (Rockville, Md.) and maintained in RPMI medium 1640 supplemented with 10% fetal bovine serum. All cell lines were cultured in plastic tissue culture flasks and kept in an incubator at 37° C. in humidified air containing 5% CO2. Antibiotic-free stock cultures of P388 cells were subcultured to 10^5 cells/ml by dilution in fresh growth medium at 2 to 3 day intervals. The mean generation time of primary P388 cultures was 14 to 17 hr. HT-29 and A549 cells were subcultured after dissociation with trypsin-EDTA at weekly intervals.
(§2) To assess the antiproliferative effects of agents against P388, HT-29, and A549 cells, 200 μl cultures (96-well tissue culture plates, Nunc, Denmark) were established at 1×10^5 cells/ml (4000 cells/cm^2 for HT-29 and A549) in drug-free medium or medium containing the crude extract at a final dilution of 1:500 of test compound at various concentrations. Solvent for all dilutions was methanol, which was removed from plates under vacuum. All experimental cultures were initiated in medium containing Gentamicin sulfate ([…]; Schering Corporation, Kenilworth, N.J.). After 48-h exposures, P388 cells were enumerated using 3-[4,5-Dimethylthiazol-2-yl]-2,5-diphenyltetrazolium bromide (MTT) as described below (Alley, M. C., et al.[1988] Cancer Res. 48:589).
(§3) To quantitate the effects on cell proliferation, 75 μl of warm growth medium containing 5 mg/ml MTT was added to each well and cultures were returned to the incubator for 90 minutes. To spectrophotometrically quantitate MTT, plates were centrifuged (900×g, 5 minutes), culture fluids removed by aspiration, and 200 μl of acidified isopropanol (2 ml concentrated HCl/liter isopropanol) added per well. The absorbance of the resulting solutions were measured at 570 nm with a plate reader (MR700 Microplate Reader, Dynatech, Laboratories, Chantilly, Va.). […] A linear relationship between tumor cell number and formazan produced was found over the range of cell densities observed in these experiments.
For C#CC(O)C=CCCCCCCCCCC=CCCCCC(C)C (stereo not drawn) [SP10102], the IC50 was 1.63 ± 0.29 µg/mL (≈ 4.9 µM).
C#CC(O)C=CCCCCCCCCCC=CCCCCCC (stereo not drawn) [SP10099] gave an IC50 of 1.23 ± 0.53 µg/mL (≈ 3.86 µM).
Molecule C#CC(O)C=CCCCCCCCCCCCCCCC (stereo not drawn) [SP10098] has an IC50 of 1.21 ± 0.73 µg/mL (≈ 4.14 µM).
Molecule C#CC(O)C=CCCCCCCCCCCC(C)CCCC (stereo not drawn) [SP10100] has an IC50 of 1.58 ± 0.51 µg/mL (≈ 5.15 µM).
C#CC(O)C=CCCCCCCCCCCCCCC(C)C (stereo not drawn) [SP10101] gave an IC50 of 1.44 ± 0.28 µg/mL (≈ 4.7 µM).

System: A549 lung tumor cells
Test: antiproliferative effect against A549 lung tumor cells (MTT)
Type: cell-based
Conditions: human lung tumor cells, mean ± S.D., n in parentheses
Method: as §1, §2, §3
C#CC(O)C=CCCCCCCCCCC=CCCCCC(C)C (stereo not drawn) [SP10102] showed an IC50 of 2.9 ± 0.34 µg/mL (≈ 8.72 µM).
Work on C#CC(O)C=CCCCCCCCCCC=CCCCCCC (stereo not drawn) [SP10099] yielded an IC50 of 1.75 ± 0.06 µg/mL (≈ 5.49 µM).
With C#CC(O)C=CCCCCCCCCCCCCCCC (stereo not drawn) [SP10098] the IC50 was 1.6 ± 0.1 µg/mL (≈ 5.47 µM).
C#CC(O)C=CCCCCCCCCCCC(C)CCCC (stereo not drawn) [SP10100] showed an IC50 of 1.56 ± 0.06 µg/mL (≈ 5.09 µM).
For C#CC(O)C=CCCCCCCCCCCCCCC(C)C (stereo not drawn) [SP10101], the IC50 was 2.3 ± 0.7 µg/mL (≈ 7.5 µM).

System: HT-29 colon tumor cells
Test: antiproliferative effect against HT-29 colon tumor cells (MTT)
Type: cell-based
Conditions: human colon tumor cells, mean ± S.D., n in parentheses
Method: as §1, §2, §3
Work on C#CC(O)C=CCCCCCCCCCC=CCCCCC(C)C (stereo not drawn) [SP10102] yielded an IC50 of 1.46 ± 0.06 µg/mL (≈ 4.39 µM).
In the case of C#CC(O)C=CCCCCCCCCCC=CCCCCCC (stereo not drawn) [SP10099], the IC50 is reported as 1.66 ± 0.15 µg/mL (≈ 5.21 µM).
In the case of C#CC(O)C=CCCCCCCCCCCCCCCC (stereo not drawn) [SP10098], the IC50 is reported as 1.66 ± 0.47 µg/mL (≈ 5.68 µM).
With C#CC(O)C=CCCCCCCCCCCC(C)CCCC (stereo not drawn) [SP10100] the IC50 was 0.86 ± 0.06 µg/mL (≈ 2.81 µM).
With C#CC(O)C=CCCCCCCCCCCCCCC(C)C (stereo not drawn) [SP10101] the IC50 was 1.06 ± 0.11 µg/mL (≈ 3.46 µM).

From US5073572A, “Bioactive metabolites from cribrochalina vasculum” (Harbor Branch Oceanographic Institution, Inc., priority 1990, dated 1991)
